These results are taken from patent US9150579B2, “Selective PI3K delta inhibitors” (Rhizen Pharmaceuticals SA, priority 2012, dated 2015).

A short description of data set [1]: Metabolic stability in mouse liver microsomes. The data set is classed as in vitro ADME. Particulars: 1 μM test item, 60 minutes, NADPH. The protocol:
(§1) Metabolic stability studies were conducted using mouse, rat, and human liver microsomes. The protocol for the studies with mouse, rat, and human liver microsomes (all from BD Gentest, USA) is provided below. In brief, 0.4 mg protein was preincubated with 2 mM NADPH (cofactor) in phosphate buffer (pH˜7.4) for 15 min at 37° C. and then added with 1 μM test item and incubated further for 60 minutes in triplicate. The reaction mixture was terminated with methanol containing an internal standard and centrifuged further to analyze the test item remaining in the supernatant by LC-MS/MS. The percent parent compound remaining was calculated in comparison with similar samples terminated at 0 minutes.

Data set [2] in a line: Metabolic stability in rat liver microsomes. The data set is classed as in vitro ADME. Particulars: 1 μM test item, 60 minutes, NADPH. The protocol: as §1
A general note: Microsomes from liver hold many membrane-bound enzymes, among them those of drug oxidation.

The nature of data set [3]: Metabolic stability in human liver microsomes. The data set is classed as in vitro ADME. Particulars: 1 μM test item, 60 minutes, NADPH. The protocol: as §1
The next data set deals with PI3K delta (Homo sapiens (Human), UniProt O00329). Kind of data set: Assay 1: Fluorescent (HTRF) determination of PI3K enzyme activity, delta. Format: biochemical. The protocol:
(§2) The homogenous time resolved fluorescence (HTRF) assay allows detection of 3,4,5-triphosphate (PIP3) formed as a result of phosphorylation of phosphotidylinositol 4,5-biphosphate (PIP2) by PI3K isoforms such as α, β, γ or δ.
PI3K isoform activity for α, β, γ or δ was determined using a PI3K human HTRF™ Assay Kit (Millipore, Billerica, Mass.) with modifications. All incubations were carried out at room temperature. […] After the initial incubation, 5 μl/well of 400 μM ATP was added and incubated for an additional 30 minutes. Reaction was terminated by adding 5 μl/well stop solution (Millipore, Billerica, Mass.). Five microliters of detection mix (Millipore, Billerica, Mass.) were then added to each well and was incubated for 6-18 h in the dark. HRTF ratio was measured on a microplate reader (BMG Labtech., Germany) at an excitation wavelength of 337 nm and emission wavelengths of 665 and 620 nm with an integration time of 400 μsec.
On the technique in general: TR-FRET usually uses a lanthanide donor and a delayed reading to cut background.

In a further data set the target is PI3K α (Homo sapiens (Human), UniProt P42336). Kind of data set: Assay 1: Fluorescent (HTRF) determination of PI3K enzyme activity, alpha. The data set is classed as biochemical. The protocol: as §2
Sequence of PI3K α (P42336 whole entry, canonical isoform): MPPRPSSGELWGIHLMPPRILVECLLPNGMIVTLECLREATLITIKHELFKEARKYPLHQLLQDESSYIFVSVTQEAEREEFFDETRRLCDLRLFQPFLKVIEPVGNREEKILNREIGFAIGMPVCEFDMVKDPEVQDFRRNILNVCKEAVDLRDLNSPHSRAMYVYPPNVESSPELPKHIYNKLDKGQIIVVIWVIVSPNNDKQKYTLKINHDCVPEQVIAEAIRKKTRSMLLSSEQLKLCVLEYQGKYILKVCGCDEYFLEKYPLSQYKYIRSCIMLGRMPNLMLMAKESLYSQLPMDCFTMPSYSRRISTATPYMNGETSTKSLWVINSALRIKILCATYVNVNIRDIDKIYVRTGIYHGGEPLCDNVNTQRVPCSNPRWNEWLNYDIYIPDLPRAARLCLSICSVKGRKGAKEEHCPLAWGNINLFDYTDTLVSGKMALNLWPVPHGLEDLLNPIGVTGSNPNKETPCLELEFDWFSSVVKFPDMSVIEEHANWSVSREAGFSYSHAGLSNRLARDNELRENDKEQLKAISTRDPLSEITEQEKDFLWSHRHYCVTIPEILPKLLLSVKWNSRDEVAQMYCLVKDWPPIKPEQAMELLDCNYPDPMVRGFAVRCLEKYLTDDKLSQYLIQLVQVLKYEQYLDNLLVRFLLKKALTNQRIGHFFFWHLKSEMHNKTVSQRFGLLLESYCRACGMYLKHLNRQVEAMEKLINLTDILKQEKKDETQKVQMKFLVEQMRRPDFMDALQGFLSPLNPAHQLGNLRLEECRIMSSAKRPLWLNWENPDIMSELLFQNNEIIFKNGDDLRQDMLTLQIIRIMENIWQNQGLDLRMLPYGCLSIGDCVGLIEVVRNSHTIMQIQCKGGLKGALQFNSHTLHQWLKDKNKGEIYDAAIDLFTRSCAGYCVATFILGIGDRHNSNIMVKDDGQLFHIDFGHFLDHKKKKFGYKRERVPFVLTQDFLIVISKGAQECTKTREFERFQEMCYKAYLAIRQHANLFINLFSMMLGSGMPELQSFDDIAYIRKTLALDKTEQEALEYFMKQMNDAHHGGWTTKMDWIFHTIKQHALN
Sequence of PI3K α (P27986 whole entry partner, canonical isoform): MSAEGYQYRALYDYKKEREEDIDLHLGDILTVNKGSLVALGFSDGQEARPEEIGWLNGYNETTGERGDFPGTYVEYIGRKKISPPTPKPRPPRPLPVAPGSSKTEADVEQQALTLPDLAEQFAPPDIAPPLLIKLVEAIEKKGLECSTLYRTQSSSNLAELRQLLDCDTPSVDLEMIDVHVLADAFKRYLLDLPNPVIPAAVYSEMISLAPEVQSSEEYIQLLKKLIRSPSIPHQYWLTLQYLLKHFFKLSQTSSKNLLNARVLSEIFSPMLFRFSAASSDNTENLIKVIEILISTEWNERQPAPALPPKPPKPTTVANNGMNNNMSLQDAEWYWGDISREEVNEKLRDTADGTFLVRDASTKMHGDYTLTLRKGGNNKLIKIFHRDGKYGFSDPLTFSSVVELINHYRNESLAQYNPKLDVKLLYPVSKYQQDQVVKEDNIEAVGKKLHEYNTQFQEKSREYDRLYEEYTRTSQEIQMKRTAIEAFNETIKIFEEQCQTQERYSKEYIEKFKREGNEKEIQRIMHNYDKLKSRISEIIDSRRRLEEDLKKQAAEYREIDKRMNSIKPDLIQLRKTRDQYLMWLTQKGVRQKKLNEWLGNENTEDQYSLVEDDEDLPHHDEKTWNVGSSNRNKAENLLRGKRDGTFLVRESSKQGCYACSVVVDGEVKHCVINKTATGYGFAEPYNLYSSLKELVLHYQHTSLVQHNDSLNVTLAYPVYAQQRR
(§3) PI3K isoform activity for α, β, γ or δ was determined using a PI3K human HTRF™ Assay Kit (Millipore, Billerica, Mass.) with modifications. All incubations were carried out at room temperature. […] After the initial incubation, 5 μl/well of 400 μM ATP was added and incubated for an additional 30 minutes. Reaction was terminated by adding 5 μl/well stop solution (Millipore, Billerica, Mass.). Five microliters of detection mix (Millipore, Billerica, Mass.) were then added to each well and was incubated for 6-18 h in the dark.

In a further data set the target is PI3K β (Homo sapiens (Human), UniProt P42338). In words: Assay 1: Fluorescent (HTRF) determination of PI3K enzyme activity, beta. The data set is classed as biochemical. The protocol: as §2, §3
Sequence of PI3K β (P42338 whole entry): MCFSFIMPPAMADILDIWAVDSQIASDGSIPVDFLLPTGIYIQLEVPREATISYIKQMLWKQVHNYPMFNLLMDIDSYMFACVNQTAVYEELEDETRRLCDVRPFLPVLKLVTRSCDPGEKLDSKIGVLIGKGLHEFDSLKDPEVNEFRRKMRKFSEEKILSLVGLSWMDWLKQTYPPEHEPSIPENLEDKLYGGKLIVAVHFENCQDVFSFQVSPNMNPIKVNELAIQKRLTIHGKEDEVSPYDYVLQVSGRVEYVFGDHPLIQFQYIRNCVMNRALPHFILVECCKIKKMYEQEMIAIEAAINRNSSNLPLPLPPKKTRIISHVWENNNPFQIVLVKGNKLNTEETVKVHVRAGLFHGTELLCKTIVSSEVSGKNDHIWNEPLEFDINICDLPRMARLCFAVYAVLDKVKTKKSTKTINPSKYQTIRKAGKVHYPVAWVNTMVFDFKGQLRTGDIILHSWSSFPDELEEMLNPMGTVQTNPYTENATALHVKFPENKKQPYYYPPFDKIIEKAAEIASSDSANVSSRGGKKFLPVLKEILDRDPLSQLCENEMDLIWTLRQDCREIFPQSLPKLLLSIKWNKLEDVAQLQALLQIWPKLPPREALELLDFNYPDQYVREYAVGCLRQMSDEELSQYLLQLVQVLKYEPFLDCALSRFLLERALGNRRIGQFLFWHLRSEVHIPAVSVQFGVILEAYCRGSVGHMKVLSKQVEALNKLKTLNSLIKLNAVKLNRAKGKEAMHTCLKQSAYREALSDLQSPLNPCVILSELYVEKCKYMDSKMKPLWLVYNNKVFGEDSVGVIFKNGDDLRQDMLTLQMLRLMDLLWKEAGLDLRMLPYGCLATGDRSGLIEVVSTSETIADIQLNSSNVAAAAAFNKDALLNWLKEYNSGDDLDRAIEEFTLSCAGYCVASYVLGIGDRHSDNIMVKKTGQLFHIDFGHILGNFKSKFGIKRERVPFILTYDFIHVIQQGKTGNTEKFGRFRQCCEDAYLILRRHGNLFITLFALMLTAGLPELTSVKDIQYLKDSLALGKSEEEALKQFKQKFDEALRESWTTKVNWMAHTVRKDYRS
Sequence of PI3K β (P27986 whole entry partner): as the sequence (P27986 whole entry partner, canonical isoform) above
The next data set concerns the target PI3K γ (Homo sapiens (Human), UniProt P48736). In words: Assay 1: Fluorescent (HTRF) determination of PI3K enzyme activity, gamma. Format: biochemical. The protocol:
as §2, §3

The nature of data set [4]: Oral pharmacokinetics in rats. The data set is classed as in vivo. The protocol:
The protocol for the pharmacokinetics studies in rat is provided below.
All animals were fasted overnight (12 hours) before dosing and continued till 4.0 hours after administration of test item. Test item formulations were prepared in 1% Tween 80 and 99% media (0.5% Methyl cellulose, 4000 cPs, pH 2.2). The blood samples (150 μl from each animal) were collected from the orbital sinus, and placed into a micro centrifuge tube containing disodium EDTA as an anticoagulant. Blood samples were centrifuged immediately with a speed of 1000 g for 10 min at 4° C. and separated plasma samples were frozen at below −80° C. and stored until analysis. The concentrations of test item in all formulation were analyzed by HPLC. The plasma concentrations of test item in all samples were analyzed by LC-MS/MS. Pharmacokinetic parameters viz. Cmax, AUC0-t, Tmax, and t1/2 were estimated by using WinNonlin software.

Data set [5] is described as follows: Oral pharmacokinetics in dogs. The data set is classed as in vivo.

Read-outs that look alike come from different tables or passages of the source.

Sequence of PI3K γ (P48736 whole entry): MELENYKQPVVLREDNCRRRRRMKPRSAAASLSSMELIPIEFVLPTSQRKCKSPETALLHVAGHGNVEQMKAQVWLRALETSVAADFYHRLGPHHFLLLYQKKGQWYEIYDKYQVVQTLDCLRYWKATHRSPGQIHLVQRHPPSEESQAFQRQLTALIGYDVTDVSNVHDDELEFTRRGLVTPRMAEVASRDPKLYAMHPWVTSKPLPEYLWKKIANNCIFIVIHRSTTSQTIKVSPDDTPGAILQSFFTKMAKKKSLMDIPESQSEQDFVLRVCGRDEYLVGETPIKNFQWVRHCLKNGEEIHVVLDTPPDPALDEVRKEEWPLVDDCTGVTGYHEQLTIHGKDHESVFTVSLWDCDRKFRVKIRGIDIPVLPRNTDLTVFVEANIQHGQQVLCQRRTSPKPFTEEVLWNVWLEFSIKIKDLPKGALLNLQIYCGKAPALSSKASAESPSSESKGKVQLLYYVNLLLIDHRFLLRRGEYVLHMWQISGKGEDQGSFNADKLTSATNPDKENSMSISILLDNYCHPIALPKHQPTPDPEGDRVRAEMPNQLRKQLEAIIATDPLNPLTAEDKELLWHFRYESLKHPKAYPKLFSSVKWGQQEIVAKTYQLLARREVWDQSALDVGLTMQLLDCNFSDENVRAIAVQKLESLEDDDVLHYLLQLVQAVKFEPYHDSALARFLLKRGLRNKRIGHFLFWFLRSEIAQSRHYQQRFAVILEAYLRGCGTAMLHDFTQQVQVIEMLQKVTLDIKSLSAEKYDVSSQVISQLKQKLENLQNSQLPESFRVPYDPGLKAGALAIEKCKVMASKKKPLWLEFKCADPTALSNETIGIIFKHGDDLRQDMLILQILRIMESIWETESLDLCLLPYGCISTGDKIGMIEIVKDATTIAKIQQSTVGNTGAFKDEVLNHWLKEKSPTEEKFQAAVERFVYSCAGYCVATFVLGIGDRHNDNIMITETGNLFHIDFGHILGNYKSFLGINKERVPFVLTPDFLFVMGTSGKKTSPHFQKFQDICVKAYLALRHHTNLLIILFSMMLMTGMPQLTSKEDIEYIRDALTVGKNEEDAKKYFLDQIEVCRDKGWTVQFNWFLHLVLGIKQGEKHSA
Sequence of PI3K delta (O00329 whole entry, canonical isoform): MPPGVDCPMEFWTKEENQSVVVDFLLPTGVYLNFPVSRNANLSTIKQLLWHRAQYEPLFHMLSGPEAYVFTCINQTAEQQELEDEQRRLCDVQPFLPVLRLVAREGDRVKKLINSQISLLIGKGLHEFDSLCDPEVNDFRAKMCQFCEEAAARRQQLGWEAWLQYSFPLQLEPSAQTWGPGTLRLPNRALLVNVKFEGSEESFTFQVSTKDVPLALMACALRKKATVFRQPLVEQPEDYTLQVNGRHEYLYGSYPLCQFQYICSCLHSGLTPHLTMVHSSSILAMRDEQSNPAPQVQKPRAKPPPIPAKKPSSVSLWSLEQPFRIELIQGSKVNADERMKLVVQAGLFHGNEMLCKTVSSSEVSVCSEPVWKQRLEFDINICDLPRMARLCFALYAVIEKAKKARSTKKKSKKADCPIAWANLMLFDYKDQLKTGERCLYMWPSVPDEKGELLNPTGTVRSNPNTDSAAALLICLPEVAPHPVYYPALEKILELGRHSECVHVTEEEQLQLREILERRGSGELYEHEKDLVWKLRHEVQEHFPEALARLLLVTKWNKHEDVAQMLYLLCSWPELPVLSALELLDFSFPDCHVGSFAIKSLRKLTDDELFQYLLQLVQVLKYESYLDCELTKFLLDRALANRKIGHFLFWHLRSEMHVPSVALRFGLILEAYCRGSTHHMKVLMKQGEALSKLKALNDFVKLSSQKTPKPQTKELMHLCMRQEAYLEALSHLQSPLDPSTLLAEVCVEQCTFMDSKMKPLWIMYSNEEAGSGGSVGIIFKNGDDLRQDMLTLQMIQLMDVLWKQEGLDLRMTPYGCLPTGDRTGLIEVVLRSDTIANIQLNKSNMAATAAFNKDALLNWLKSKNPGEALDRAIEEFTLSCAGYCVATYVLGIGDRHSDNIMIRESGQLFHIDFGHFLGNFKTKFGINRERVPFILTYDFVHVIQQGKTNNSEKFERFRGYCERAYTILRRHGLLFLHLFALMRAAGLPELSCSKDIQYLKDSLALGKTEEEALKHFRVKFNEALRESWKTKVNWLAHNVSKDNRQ
Sequence of PI3K delta (P27986 whole entry partner, canonical isoform): as the sequence (P27986 whole entry partner, canonical isoform) above

In the case of `CC(C)Oc1ccc(-c2nn(C(C)c3oc4ccccc4c(=O)c3-c3cccc(F)c3)c3ncnc(N)c23)cc1F` (racemic) [Compound A, 2-(1-(4-amino-3-(3-fluoro-4-isopropoxyphenyl)-1H-pyrazolo[3,4-d]pyrimidin-1-yl)ethyl)-3-(3-fluorophenyl)-4H-chromen-4-one], the “Metabolic stability in liver microsomes, Mouse (percent parent compound remaining)” value in data set [1] came out at 32.6%. Moreover, the “Metabolic stability in liver microsomes, Rat (percent parent compound remaining)” value in data set [2] was found to be 43.1%. Also, the “Metabolic stability in liver microsomes, Human (percent parent compound remaining)” value in data set [3] is 38.4%. It took 0.0373 µM to reach half-maximal inhibition against PI3K delta (IC50). Besides, the results for the inhibition at 1 µM against PI3K α, at PI3K β and at PI3K γ were 2.63%, 9.95% and 55.9%, respectively.

As for `CC(C)Oc1ccc(-c2nn(C(C)c3oc4ccc(F)cc4c(=O)c3-c3cccc(F)c3)c3ncnc(N)c23)cc1F` (racemic) [Compound B, 2-(1-(4-amino-3-(3-fluoro-4-isopropoxyphenyl)-1H-pyrazolo[3,4-d]pyrimidin-1-yl)ethyl)-6-fluoro-3-(3-fluorophenyl)-4H-chromen-4-one], the “Metabolic stability in liver microsomes, Mouse (percent parent compound remaining)” value in data set [1] came to 54.9%. In addition, the “Metabolic stability in liver microsomes, Rat (percent parent compound remaining)” value in [2] is 51.4%. Besides, the “Metabolic stability in liver microsomes, Human (percent parent compound remaining)” value in data set [3] is 46.9%.

`CC(C)Oc1ccc(-c2nn([C@H](C)c3oc4ccccc4c(=O)c3-c3cccc(F)c3)c3ncnc(N)c23)cc1F` [Compound A2, (R)-2-(1-(4-amino-3-(3-fluoro-4-isopropoxyphenyl)-1H-pyrazolo[3,4-d]pyrimidin-1-yl)ethyl)-3-(3-fluorophenyl)-4H-chromen-4-one]: in data set [1], the “Metabolic stability in liver microsomes, Mouse (percent parent compound remaining)” value stood at 34.7%. Besides, in data set [2], the “Metabolic stability in liver microsomes, Rat (percent parent compound remaining)” value worked out at 44.2%. Also, the “Metabolic stability in liver microsomes, Human (percent parent compound remaining)” value in data set [3] is reported as 11.4%. In addition, the IC50 (commonly the concentration at which inhibition is half-maximal) at PI3K delta (μM) is over 10 µM. The inhibition (in general, how much of the control response was suppressed) at 1 µM was determined as 0.95% against PI3K α, 38.7% against PI3K β and 66.3% against PI3K γ.

In the case of `CC(C)Oc1ccc(-c2nn([C@H](C)c3oc4ccc(F)cc4c(=O)c3-c3cccc(F)c3)c3ncnc(N)c23)cc1F` [Compound B2, (R)-2-(1-(4-amino-3-(3-fluoro-4-isopropoxyphenyl)-1H-pyrazolo[3,4-d]pyrimidin-1-yl)ethyl)-6-fluoro-3-(3-fluorophenyl)-4H-chromen-4-one], the “Metabolic stability in liver microsomes, Mouse (percent parent compound remaining)” value in data set [1] is recorded as 54.1%. The “Metabolic stability in liver microsomes, Rat (percent parent compound remaining)” value in data set [2] was determined as 48.6%. The “Metabolic stability in liver microsomes, Human (percent parent compound remaining)” value in [3] turned out to be 27.5%.

On to `CC(C)Oc1ccc(-c2nn([C@@H](C)c3oc4ccc(F)cc4c(=O)c3-c3cccc(F)c3)c3ncnc(N)c23)cc1F.Cc1ccc(S(=O)(=O)O)cc1` [PTSA salt of compound B1, (S)-2-(1-(4-amino-3-(3-fluoro-4-isopropoxyphenyl)-1H-pyrazolo[3,4-d]pyrimidin-1-yl)ethyl)-6-fluoro-3-(3-fluorophenyl)-4H-chromen-4-one 4-methylbenzenesulfonate], for which, in [4], the “Cmax relative to free base of compound B1” value is on record as “about twice” and the “area under the curve (AUC) relative to free base of compound B1” value is on record as “nearly three times”. Also, in data set [5], the “Cmax relative to free base of compound B1” value is “more than twice” and the “area under the curve (AUC) relative to free base of compound B1” value is “about four times”.
